Experiments:
[1] = test system: PBMC; assay: Stimulation of the secretion of IFN-α from peripheral blood mononuclear cells (PBMC); type: cell-based, human; conditions: minimal effective concentration: lowest concentration giving cytokine level at least 3 times the minimum detection limit; 24 hours incubation
Procedure: The ability of the compounds of the present invention to stimulate the secretion of IFN-α from PBMC was determined by the following experimental method:
The compound was diluted with pure DMSO to a maximum concentration of 5 mM, and a total of 9 points were obtained by a 4-fold gradient dilution. 4 μl of the compound were then added to 196 μl of RMPI 1640 medium containing 10% FBS and mixed well. 50 μl of the mixture were taken from each well and added to a new 96-well plate.
All reagents were equilibrated to room temperature. 60 ml of blood and PBS+2% FBS were added to a 250 ml culture flask, gently pipetted, mixed well and diluted. 15 ml of lymphocyte separation solution Ficoll-Paque PREMIUM and then 30 ml of diluted blood were added to a 50 ml PBMC centrifuge tube SepMate™-50. The mixture was centrifuged at 1200 g for 10 minutes at room temperature. The supernatant was taken and then centrifuged at 300 g for 8 minutes. The cells were re-suspended in the RMPI 1640 medium containing 10% FBS and counted, and the number of PBMCs was adjusted to 3.33×10^6 cells/ml. 150 μl of the cell solution were added to the plate added with the compound, and incubated in an incubator at 37° C., in 5.0% CO2 for 24 hours.
The cell culture plate was placed in a centrifuge, and centrifuged at 1200 rpm for 10 minutes at room temperature. 150 μl of the supernatant were taken from each well. The reagents in the human IFN-α kit were first equilibrated to normal temperature. The anti-IFN-α-Eu^3+-Cryptate conjugate and the anti-IFN-α-d2-conjugate were formulated in the dark according to the kit instructions, and both of them were mixed well with the conjugate buffer at a ratio of 1:40. 16 μl of the supernatant obtained by centrifugation were then added to each well. 2 μl of anti-IFN-α-Eu^3+-Cryptate conjugate and anti-IFN-α-d2-conjugate formulated just now were then added to each well. The plate was shaken and mixed well, and incubated in the dark at room temperature for 3 hours.
The PHERAStar was read in the HTRF mode. The lowest compound concentration that stimulated cytokine levels of at least 3 times higher than the minimum detection limit was defined as the minimal effective concentration (MEC) value of the compound in the cytokine stimulation test.
The ability of the compounds of the present invention to stimulate the secretion of IFN-α from PBMC was determined by the above test, and the obtained MEC values are shown in Table 3.

[2] = target: T1, CYP3A4 (Homo sapiens (Human), UniProt P08684); assay: Inhibition of the midazolam metabolite site of CYP3A4 in human liver microsomes; type: in vitro ADME; conditions: probe substrate midazolam
Procedure: The effect of the compounds of the present invention on the enzyme activity of midazolam metabolite site of CYP3A4 in human liver microsomes was determined by the following experimental method:
(§1) 100 mM PBS buffer was formulated, which was then used to formulate 2.5 mg/ml microsome solution and 5 mM NADPH solution. The 5× concentration of the compound working solution was diluted with PBS gradient (150, 50, 15, 5, 1.5, 0.15, 0.015, 0 μM). The 5× concentration of ketoconazole working solution was diluted with PBS gradient (150, 50, 15, 5, 1.5, 0.15, 0.015, 0 μM). Dextromethorphan working solution was diluted with PBS to a concentration of 50 μM.
(§2) 20 μl of 2.5 mg/ml microsome solution, 20 μl of 50 μM testosterone working solution, 20 μl of MgCl2 solution and 20 μl of the compound working solution (150, 50, 15, 5, 1.5, 0.15, 0.015, 0 μM, different reaction systems for each concentration) were taken respectively and mixed well. For the positive control group, the compound was replaced with the same concentration of ketoconazole. The mixture together with 5 mM NADPH solution were pre-incubated at 37° C. for 5 minutes. After 5 minutes, 20 μl of NADPH were added to each well, the reaction was started and incubated for 30 minutes. All the incubated samples were present in duplicate. After 30 minutes, 250 μl of acetonitrile containing internal standard were added to all samples, mixed well, shaken at 800 rpm for 10 minutes, and then centrifuged at 3700 rpm for 10 minutes. 80 μl of the supernatant were taken and analyzed by LC-MS/MS.
The data were calculated by Graphpad Prism to obtain the IC50 values of the compounds on the midazolam metabolite site of CYP3A4.

[3] = target: CYP2D6 (Homo sapiens (Human), UniProt P10635); assay: Inhibition of the enzyme activity of CYP2D6 in human liver microsomes; type: in vitro ADME; conditions: probe substrate dextromethorphan
Procedure: The effect of the compounds of the present invention on the enzyme activity of CYP2D6 in human liver microsomes was determined by the following experimental method:
as §1, with “quinidine” for “ketoconazole”
as §2, with “quinidine.” for “ketoconazole.”
The data were calculated by Graphpad Prism to obtain the IC50 values of the compounds on the metabolite site of CYP2D6.

[4] = target: T1, CYP3A4; assay: Inhibition of the testosterone metabolite site of CYP3A4 in human liver microsomes; type: in vitro ADME; conditions: probe substrate testosterone
Procedure: The effect of the compounds of the present invention on the enzyme activity of testosterone metabolite site of CYP3A4 in human liver microsomes was determined by the following experimental method:
as §1, §2
The data were calculated by Graphpad Prism to obtain the IC50 values of the compounds on the testosterone metabolite site of CYP3A4.

T1 sequence (P08684 whole entry): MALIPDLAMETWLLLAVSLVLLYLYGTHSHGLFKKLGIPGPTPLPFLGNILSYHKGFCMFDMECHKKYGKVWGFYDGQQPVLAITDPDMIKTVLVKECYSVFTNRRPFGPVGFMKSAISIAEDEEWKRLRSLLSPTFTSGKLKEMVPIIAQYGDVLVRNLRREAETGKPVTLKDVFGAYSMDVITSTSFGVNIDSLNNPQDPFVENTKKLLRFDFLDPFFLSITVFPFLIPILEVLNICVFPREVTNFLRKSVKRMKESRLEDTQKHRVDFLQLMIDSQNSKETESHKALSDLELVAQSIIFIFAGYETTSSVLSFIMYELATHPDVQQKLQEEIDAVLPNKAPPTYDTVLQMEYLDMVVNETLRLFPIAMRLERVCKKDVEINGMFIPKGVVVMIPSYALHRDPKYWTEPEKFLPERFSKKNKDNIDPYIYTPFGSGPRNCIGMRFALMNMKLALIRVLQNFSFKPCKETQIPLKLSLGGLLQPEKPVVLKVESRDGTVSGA
CYP2D6, sequence (P10635 whole entry): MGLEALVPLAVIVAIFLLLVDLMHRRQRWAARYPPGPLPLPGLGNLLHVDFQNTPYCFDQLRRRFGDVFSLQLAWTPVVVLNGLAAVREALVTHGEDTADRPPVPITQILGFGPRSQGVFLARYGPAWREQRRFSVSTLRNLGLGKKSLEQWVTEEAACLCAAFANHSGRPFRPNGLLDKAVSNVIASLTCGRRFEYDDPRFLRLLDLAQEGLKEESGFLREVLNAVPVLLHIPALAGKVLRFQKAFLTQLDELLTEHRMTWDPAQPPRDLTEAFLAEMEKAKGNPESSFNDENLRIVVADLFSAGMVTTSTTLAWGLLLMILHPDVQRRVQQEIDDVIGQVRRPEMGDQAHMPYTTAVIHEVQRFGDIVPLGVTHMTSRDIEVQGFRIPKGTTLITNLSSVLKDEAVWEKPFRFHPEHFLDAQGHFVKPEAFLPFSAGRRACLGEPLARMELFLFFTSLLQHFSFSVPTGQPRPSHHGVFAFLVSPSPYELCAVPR

SMILES	MEC to stimulate the secretion of IFN-α from PBMC [1]	IC50 [2]	IC50 [3]	IC50 [4]
CCCCOc1nc(N)c2cnn(Cc3ccc(CN4CCCCC4)cc3)c2n1 [Example 3, 6-Butoxy-1-(4-(piperidin-1-ylmethyl)benzyl)-1H-pyrazolo[3,4-d]pyrimidin-4-amine]	20 nM	7 µM	4 µM	3 µM
CCCCOc1nc(N)c2cnn(Cc3ccc(CN4CCC4)cc3)c2n1 [Example 2, 1-(4-(Azetidin-1-ylmethyl)benzyl)-6-butoxy-1H-pyrazolo[3,4-d]pyrimidin-4-amine]	23 nM	10 µM	> 30 µM	19 µM
CCCCOc1nc(N)c2cnn(Cc3cccc(CN4CCCC4)c3)c2n1 [Example 4, 6-Butoxy-1-(3-(pyrrolidin-1-ylmethyl)benzyl)-1H-pyrazolo[3,4-d]pyrimidin-4-amine]	100 nM	11 µM	16 µM	6 µM
COCCOc1nc(N)c2cnn(Cc3ccc(CN4CCCC4)cc3)c2n1 [Example 7, 6-(2-Methoxyethoxy)-1-(4-(pyrrolidin-1-ylmethyl)benzyl)-1H-pyrazolo[3,4-d]pyrimidin-4-amine]	89 nM	> 30 µM	> 30 µM	> 30 µM
